What all share (experiment): kinome screen (33PanQinase)
Holding throughout (format): biochemical

For one assay, the target named is T1, EPHA1 (Homo sapiens, UniProt P21709).
T1 construct: purchased Reaction Biology Europe GmbH (formerly ProQinase)
T1 sequence (P21709 26-976): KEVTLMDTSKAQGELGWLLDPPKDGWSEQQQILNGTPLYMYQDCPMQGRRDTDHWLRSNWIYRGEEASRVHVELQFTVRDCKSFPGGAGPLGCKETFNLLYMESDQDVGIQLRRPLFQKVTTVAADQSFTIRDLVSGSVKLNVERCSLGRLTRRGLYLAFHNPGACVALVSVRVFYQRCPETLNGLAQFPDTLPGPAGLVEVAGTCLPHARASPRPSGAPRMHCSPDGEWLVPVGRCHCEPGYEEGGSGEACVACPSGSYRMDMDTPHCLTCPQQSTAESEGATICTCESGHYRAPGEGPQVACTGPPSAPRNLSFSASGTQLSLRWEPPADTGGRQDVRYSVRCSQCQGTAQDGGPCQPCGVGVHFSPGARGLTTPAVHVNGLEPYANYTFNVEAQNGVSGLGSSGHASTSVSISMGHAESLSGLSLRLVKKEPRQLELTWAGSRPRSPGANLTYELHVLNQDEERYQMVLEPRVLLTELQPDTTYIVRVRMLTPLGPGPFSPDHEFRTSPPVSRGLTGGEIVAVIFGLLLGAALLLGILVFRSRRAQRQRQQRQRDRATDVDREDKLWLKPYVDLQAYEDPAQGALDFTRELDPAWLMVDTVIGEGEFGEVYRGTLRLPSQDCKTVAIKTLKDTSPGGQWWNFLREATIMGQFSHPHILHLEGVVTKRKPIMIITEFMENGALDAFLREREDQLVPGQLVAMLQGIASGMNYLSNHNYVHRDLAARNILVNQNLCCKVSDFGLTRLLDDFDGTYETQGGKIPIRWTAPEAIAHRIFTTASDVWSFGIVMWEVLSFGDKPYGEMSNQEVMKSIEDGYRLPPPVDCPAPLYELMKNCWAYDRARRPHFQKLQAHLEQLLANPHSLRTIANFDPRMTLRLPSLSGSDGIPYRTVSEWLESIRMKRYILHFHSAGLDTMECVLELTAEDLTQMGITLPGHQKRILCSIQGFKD
The method, then:
(§1) The Kinome Screening was performed by Reaction Biology Europe GmbH (http://reactionbiology.com; Freiburg i. Br., Germany).

The next assay has as its target T2, TRKB (Homo sapiens, UniProt Q16620).
T2 construct: purchased Reaction Biology Europe GmbH (formerly ProQinase)
How it is done: as §1

A further assay concerns the target T3, INSR (Homo sapiens, UniProt P06213).
T3 construct: purchased Reaction Biology Europe GmbH (formerly ProQinase)
The method, then: as §1

The next assay has as its target T4, MYLK3 (Homo sapiens, UniProt Q32MK0).
T4 construct: purchased Reaction Biology Europe GmbH (formerly ProQinase)
T4 sequence (Q32MK0 1-819): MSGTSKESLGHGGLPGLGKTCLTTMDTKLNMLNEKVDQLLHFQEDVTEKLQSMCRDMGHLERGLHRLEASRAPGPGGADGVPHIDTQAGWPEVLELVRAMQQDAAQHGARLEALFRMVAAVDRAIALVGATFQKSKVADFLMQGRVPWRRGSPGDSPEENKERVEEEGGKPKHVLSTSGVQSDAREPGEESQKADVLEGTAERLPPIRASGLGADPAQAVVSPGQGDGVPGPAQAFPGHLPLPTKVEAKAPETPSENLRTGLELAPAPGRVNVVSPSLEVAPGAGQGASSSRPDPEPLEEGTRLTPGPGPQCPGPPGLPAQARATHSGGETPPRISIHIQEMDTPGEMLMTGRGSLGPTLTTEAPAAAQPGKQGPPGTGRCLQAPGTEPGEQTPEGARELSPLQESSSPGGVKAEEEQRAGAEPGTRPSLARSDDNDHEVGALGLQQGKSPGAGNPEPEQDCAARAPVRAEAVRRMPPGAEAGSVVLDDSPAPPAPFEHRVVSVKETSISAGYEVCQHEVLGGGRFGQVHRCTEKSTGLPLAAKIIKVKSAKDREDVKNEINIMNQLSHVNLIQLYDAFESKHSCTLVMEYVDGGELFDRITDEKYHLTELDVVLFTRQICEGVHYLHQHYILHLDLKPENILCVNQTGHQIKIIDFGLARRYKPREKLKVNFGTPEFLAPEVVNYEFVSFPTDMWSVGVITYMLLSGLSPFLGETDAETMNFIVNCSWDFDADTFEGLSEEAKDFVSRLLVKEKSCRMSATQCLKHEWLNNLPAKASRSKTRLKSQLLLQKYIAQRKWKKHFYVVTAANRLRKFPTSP
How it is done: as §1

The target of the next assay is T5, p38α (Homo sapiens, UniProt Q16539).
T5 construct: purchased Reaction Biology Europe GmbH (formerly ProQinase)
How it is done: as §1

The target of a further assay is T6, MEK5 (Homo sapiens, UniProt Q13163).
T6 construct: purchased Reaction Biology Europe GmbH (formerly ProQinase)
T6 sequence (Q13163 1-448): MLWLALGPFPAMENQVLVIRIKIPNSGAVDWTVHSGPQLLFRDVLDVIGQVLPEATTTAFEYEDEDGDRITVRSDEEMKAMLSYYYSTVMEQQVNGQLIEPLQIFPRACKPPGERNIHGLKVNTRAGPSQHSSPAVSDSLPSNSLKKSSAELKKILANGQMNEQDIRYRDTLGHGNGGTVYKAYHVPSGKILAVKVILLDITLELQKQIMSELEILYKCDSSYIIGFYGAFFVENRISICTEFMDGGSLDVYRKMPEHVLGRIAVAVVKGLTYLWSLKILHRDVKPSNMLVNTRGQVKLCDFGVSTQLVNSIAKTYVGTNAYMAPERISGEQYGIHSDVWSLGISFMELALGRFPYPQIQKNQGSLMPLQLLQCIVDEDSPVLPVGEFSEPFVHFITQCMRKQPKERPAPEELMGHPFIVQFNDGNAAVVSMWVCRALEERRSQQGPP
How it is done: as §1

The next assay has as its target T7, ERK5 (Homo sapiens, UniProt Q13164).
T7 construct: purchased Reaction Biology Europe GmbH (formerly ProQinase)
How it is done:
as §1

T5 sequence (Q16539 whole entry): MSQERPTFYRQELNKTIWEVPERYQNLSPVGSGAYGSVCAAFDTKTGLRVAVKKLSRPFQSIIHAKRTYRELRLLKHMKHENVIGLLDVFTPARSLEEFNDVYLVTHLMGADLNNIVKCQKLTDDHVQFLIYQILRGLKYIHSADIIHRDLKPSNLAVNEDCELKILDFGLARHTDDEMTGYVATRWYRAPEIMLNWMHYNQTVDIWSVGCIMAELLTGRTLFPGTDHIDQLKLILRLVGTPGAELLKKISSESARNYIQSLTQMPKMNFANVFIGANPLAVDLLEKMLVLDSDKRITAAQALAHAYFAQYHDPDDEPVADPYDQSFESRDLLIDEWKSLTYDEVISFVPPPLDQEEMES
T7 sequence (Q13164 whole entry): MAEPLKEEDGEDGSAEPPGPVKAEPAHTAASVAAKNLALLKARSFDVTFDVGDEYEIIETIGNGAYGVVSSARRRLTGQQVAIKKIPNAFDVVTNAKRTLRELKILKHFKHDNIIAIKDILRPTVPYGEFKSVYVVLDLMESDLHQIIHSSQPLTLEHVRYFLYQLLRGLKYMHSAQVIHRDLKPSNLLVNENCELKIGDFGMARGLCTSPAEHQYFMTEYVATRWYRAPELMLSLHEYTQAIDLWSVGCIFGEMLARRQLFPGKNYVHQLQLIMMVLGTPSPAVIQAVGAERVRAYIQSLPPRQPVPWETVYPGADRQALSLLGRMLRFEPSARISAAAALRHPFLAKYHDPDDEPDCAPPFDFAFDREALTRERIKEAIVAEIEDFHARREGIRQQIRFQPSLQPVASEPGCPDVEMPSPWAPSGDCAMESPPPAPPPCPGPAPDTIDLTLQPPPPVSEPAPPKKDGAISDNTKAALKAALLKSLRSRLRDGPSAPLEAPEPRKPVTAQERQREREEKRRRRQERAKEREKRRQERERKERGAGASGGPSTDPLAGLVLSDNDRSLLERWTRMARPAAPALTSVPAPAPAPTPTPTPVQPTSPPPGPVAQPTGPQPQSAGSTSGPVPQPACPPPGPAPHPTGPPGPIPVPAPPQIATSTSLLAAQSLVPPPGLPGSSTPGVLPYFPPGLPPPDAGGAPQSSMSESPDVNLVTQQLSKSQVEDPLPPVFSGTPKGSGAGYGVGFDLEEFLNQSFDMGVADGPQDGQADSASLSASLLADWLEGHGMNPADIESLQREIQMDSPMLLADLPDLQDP
T2 sequence (Q16620 32-822): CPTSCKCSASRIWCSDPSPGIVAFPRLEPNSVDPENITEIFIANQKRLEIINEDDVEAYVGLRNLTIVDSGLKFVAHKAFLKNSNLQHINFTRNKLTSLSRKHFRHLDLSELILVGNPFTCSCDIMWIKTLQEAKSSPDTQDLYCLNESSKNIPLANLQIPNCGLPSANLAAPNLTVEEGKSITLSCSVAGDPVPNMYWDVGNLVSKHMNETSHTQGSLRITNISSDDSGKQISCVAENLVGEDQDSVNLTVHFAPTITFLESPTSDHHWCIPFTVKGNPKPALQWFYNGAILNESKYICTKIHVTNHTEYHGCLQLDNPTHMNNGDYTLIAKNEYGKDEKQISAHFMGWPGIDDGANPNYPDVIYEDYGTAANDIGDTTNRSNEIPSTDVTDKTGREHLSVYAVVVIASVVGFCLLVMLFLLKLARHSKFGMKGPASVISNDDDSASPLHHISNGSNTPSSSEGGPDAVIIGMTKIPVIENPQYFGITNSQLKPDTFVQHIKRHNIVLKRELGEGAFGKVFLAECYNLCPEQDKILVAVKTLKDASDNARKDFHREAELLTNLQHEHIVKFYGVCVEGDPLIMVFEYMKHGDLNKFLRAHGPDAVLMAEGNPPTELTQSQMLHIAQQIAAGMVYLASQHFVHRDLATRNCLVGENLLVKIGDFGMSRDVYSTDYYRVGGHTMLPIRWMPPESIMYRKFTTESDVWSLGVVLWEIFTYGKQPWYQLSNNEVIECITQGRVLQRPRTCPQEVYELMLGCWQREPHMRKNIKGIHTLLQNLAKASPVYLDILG
T3 sequence (P06213 28-1382): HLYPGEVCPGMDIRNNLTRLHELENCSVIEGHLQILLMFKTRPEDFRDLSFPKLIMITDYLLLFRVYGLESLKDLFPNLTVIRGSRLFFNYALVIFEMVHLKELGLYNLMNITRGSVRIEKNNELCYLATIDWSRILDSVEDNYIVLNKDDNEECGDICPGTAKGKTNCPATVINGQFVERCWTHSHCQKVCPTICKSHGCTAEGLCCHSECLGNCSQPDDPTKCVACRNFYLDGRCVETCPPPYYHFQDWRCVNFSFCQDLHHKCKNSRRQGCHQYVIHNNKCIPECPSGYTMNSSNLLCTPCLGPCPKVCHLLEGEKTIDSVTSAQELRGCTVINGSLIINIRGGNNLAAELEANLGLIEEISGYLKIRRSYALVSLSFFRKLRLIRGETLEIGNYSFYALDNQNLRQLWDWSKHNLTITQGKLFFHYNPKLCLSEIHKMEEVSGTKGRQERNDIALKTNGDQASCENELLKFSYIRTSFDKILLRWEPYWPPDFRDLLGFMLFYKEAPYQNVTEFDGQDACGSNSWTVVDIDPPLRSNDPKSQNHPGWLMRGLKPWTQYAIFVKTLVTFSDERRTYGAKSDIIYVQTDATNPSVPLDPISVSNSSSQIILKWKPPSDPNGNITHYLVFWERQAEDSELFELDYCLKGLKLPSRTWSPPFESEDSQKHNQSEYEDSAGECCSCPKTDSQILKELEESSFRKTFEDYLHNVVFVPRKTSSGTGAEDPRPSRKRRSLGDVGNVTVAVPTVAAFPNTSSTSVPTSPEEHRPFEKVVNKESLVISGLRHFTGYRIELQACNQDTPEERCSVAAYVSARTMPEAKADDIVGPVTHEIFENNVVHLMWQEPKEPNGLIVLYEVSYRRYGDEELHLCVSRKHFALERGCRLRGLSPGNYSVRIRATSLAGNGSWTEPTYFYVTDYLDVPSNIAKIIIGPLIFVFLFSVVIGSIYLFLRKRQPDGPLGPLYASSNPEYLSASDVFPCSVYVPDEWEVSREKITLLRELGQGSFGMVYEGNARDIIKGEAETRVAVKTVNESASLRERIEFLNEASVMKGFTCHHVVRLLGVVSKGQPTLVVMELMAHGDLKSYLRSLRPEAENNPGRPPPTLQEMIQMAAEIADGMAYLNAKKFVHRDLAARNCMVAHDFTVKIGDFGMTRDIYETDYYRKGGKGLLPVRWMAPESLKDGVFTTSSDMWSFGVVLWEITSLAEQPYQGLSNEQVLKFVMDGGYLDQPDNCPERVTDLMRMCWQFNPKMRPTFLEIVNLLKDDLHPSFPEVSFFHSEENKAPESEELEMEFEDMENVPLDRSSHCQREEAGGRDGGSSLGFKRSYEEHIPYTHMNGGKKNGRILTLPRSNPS

Regarding `c1ccc(CNc2cc(-c3c[nH]c4ncccc34)ccn2)cc1` [meriolin 36], the residual kinase activity on EPHA1 (0.3 µM) is 127 % of control; on EPHA1 (3 µM), 126 % of control; at TRKB (0.3 µM), 10 % of control; on TRKB (3 µM), 2 % of control; on INSR (0.3 µM), 82 % of control; at INSR (3 µM), 36 % of control. The residual kinase activity on MYLK3 (0.3 µM) was 71 % of control; at MYLK3 (3 µM) it was 21 % of control; on p38α (0.3 µM) it was 78 % of control; at p38α (3 µM) it was 80 % of control; at MEK5 (0.3 µM), 30 % of control; at MEK5 (3 µM), 12 % of control. Further, the values for the residual kinase activity on ERK5 (0.3 µM) and on ERK5 (3 µM) were 13 % of control and 8 % of control, respectively.

For `COc1ccnc2[nH]cc(-c3cc(N)nc(N)c3)c12` [meriolin 16], the residual kinase activity on EPHA1 (0.03 µM) was 128 % of control; at EPHA1 (0.3 µM), 116 % of control; at TRKB (0.03 µM) it was 68 % of control; at TRKB (0.3 µM), 29 % of control; at INSR (0.03 µM), 96 % of control; on INSR (0.3 µM), 91 % of control. Moreover, the residual kinase activity at MYLK3 (0.03 µM) is recorded as 119 % of control; on MYLK3 (0.3 µM), 77 % of control; at p38α (0.03 µM) it was 94 % of control; at p38α (0.3 µM) it was 74 % of control; on MEK5 (0.03 µM) it was 35 % of control; on MEK5 (0.3 µM), 31 % of control. Besides, the residual kinase activity on ERK5 (0.03 µM) is recorded as 28 % of control; on ERK5 (0.3 µM) it was 22 % of control.
